Publication PMC5739597, “Discovery and evaluation of triple inhibitors of VEGFR-2, TIE-2 and EphB4 as anti-angiogenic and anti-cancer agents” (Oncotarget, 2017)
Read-outs that look alike come from different tables or passages of the source.

How the values were obtained:
[1] = target: T1, VEGFR-2 (Homo sapiens, UniProt P35968); experiment: ADP-Glo in vitro RTK inhibition assay, VEGFR-2; format: biochemical; settings: ATP 50 μM
Procedure: (§1) In order to validate the direct effect of title compounds on VEGFR-2, Tie-2, and EphB4 kinases, we performed in vitro assay using the ADP-Glo Kinase Assay Kit (Promega, Wisconsin, USA).
(§2) The kinase assay was performed in a reaction mixture of final volume of 10 μL. […] The plate was incubated at 30°C for 1 h. After the plate was cooled at room temperature for 5 min, 5 μL of ADP-Glo reagent was added into each well to stop the reaction and consume the remaining […] within 40 min. At the end, 10 μL of kinase detection reagent was added into the well and incubated for 30 min to produce a luminescence signal. […] The assay plate was incubated at 30°C for 4 h. After the plate was cooled at room temperature for 5 min, 5 μL of ADP-Glo reagent was added into each well to stop the reaction and consume the remaining […] within 1 h. At the end, 10 μL of kinase detection reagent was added into each well and incubated for 30 min to produce a luminescence signal. The luminescence was read by VICTOR-X multi-label plate reader.

[2] = target: TIE-2 (Homo sapiens, UniProt Q02763); experiment: ADP-Glo in vitro RTK inhibition assay, TIE-2; format: biochemical; settings: ATP 50 μM
Sequence of TIE-2 (Q02763 23-1124): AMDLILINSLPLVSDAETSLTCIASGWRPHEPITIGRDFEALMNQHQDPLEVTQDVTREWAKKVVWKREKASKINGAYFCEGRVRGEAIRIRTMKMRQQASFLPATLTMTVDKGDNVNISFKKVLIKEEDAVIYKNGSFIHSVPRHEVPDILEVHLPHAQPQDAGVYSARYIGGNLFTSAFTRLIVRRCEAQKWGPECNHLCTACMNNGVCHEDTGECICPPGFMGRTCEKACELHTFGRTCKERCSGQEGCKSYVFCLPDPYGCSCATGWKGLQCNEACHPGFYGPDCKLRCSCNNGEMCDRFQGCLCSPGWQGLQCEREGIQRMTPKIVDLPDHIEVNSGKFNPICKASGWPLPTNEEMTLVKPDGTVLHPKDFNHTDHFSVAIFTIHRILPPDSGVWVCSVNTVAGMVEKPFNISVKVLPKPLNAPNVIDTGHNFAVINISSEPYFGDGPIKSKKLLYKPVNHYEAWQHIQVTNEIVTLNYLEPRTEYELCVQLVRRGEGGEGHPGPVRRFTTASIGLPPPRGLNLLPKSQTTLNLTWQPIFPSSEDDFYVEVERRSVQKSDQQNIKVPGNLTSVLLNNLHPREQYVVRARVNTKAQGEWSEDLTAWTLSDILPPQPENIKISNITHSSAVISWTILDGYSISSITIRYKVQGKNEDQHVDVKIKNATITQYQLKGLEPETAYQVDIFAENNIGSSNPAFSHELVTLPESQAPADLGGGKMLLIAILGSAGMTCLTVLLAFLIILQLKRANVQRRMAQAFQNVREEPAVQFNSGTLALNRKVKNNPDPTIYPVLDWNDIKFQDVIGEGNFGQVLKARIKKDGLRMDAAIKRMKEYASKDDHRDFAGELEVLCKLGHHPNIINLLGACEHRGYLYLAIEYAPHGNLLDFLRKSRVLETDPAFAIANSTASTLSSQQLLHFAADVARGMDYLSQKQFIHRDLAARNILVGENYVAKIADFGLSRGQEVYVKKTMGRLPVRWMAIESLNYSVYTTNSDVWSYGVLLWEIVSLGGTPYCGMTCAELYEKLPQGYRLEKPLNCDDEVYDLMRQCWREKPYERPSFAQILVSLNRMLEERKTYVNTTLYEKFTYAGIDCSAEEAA
Procedure: as §1, §2

[3] = target: T2, EphB4 (Homo sapiens, UniProt P54760); experiment: ADP-Glo in vitro RTK inhibition assay, EphB4; format: biochemical; settings: ATP 50 μM
T2 sequence (P54760 16-987): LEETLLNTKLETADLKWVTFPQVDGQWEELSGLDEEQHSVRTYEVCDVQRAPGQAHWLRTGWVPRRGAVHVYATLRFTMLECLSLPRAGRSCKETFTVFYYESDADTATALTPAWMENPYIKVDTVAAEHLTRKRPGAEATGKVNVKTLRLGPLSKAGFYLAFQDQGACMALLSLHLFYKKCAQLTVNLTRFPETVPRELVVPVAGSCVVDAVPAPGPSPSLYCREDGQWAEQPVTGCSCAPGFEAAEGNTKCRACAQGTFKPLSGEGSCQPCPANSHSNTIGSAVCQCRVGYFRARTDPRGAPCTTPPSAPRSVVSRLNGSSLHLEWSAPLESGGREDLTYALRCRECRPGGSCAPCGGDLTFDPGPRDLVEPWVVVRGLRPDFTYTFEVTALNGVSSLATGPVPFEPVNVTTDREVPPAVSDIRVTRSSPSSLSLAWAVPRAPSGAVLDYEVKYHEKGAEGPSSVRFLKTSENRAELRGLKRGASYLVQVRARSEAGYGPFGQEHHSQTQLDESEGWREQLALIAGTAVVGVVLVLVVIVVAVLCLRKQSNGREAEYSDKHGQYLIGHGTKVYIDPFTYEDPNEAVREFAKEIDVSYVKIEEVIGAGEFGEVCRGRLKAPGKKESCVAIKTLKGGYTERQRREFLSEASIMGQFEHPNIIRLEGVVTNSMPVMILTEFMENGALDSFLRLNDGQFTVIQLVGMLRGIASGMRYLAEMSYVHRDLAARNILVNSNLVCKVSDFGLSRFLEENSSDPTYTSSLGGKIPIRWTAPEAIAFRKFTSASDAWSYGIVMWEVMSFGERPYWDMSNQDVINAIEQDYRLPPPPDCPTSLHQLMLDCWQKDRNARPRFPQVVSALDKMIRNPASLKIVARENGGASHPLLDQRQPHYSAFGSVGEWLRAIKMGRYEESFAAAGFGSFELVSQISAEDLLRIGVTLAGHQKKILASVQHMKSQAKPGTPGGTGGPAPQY
Procedure: as §1, §2

[4] = target: VEGFR-1 (Homo sapiens, UniProt P17948); experiment: Kinase-Glo Plus RTK selectivity assay, VEGFR-1; format: biochemical; settings: 10 μM ATP
Procedure: (§3) A 50 μL reaction mixture contains 40 mM Tris, pH 7.4, 10 mM MgCl2, 0.1 mg/ml BSA, 1 mM DTT, 10 μM ATP, kinase and substrate (0.2 mg/mL Poly(Glu, Tyr)/10 μM ATP). The test compounds were diluted in 10% DMSO and 5 μL of the dilution was added to a 50 μL reaction so that the final concentration of DMSO is 1% in all of reactions. The assay was performed using Kinase-Glo Plus luminescence kinase assay kit. It measures kinase activity by quantitating the amount of ATP remaining in solution following a kinase reaction. The luminescent signal from the assay is correlated with the amount of ATP present and is inversely correlated with the amount of kinase activity. The IC50 values were calculated using nonlinear regression with normalized dose−response fit using Prism GraphPad software.

[5] = target: FGFR-1 (Homo sapiens, UniProt P11362); experiment: Kinase-Glo Plus RTK selectivity assay, FGFR-1; format: biochemical; settings: 10 μM ATP
Sequence of FGFR-1 (P11362 22-822, species assumed): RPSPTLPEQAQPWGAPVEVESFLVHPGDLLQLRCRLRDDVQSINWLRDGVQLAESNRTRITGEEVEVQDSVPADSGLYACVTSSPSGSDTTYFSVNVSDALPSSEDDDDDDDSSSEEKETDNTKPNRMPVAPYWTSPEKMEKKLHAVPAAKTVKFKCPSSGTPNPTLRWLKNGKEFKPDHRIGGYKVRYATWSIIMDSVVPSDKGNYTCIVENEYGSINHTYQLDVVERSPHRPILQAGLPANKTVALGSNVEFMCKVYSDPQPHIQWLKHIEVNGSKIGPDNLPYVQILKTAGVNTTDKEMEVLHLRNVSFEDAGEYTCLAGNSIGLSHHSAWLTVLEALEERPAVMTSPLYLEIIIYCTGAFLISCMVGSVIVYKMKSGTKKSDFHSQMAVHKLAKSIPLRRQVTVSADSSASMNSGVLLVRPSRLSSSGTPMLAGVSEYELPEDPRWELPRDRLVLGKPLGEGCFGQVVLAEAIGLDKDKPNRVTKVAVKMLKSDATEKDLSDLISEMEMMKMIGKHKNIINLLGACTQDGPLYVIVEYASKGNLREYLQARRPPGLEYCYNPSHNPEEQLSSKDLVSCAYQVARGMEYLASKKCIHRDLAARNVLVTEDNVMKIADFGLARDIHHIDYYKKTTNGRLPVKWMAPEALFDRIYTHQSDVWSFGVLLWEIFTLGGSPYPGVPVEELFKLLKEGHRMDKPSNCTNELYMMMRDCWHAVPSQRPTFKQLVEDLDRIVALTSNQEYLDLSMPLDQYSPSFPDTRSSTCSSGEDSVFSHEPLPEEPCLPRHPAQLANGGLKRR
Procedure: The assay was performed using Kinase-Glo Plus luminescence kinase assay kit. It measures kinase activity by quantitating the amount of ATP remaining in solution following a kinase reaction. The luminescent signal from the assay is correlated with the amount of ATP present and is inversely correlated with the amount of kinase activity.

[6] = target: FGFR-4 (Homo sapiens, UniProt P22455); experiment: Kinase-Glo Plus RTK selectivity assay, FGFR-4; format: biochemical; settings: 10 μM ATP
Sequence of FGFR-4 (P22455 22-802, species assumed): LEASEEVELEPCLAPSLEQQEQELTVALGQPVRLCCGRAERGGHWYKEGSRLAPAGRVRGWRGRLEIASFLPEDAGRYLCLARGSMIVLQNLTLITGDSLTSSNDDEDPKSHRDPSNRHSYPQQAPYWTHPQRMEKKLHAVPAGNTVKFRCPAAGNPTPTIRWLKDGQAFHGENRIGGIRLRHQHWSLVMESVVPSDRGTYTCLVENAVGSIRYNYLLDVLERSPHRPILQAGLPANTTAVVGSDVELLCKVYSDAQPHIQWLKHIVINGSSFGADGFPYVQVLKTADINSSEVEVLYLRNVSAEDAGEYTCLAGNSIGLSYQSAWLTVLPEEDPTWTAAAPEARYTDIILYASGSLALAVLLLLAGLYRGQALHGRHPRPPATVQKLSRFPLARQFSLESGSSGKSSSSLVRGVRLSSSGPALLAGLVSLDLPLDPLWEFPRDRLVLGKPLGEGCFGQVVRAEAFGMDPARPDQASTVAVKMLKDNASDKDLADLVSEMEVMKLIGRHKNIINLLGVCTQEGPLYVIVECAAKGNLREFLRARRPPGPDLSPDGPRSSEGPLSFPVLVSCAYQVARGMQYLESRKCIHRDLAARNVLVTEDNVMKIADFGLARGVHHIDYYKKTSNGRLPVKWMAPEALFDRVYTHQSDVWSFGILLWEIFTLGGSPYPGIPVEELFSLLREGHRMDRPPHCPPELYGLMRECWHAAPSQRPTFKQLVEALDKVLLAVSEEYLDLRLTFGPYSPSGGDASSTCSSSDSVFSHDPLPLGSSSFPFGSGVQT
Procedure: as §3

[7] = target: B-Raf (Homo sapiens, UniProt P15056); experiment: Kinase-Glo Plus RTK selectivity assay, B-Raf; format: biochemical; settings: 10 μM ATP
Sequence of B-Raf (P15056 whole entry, species assumed): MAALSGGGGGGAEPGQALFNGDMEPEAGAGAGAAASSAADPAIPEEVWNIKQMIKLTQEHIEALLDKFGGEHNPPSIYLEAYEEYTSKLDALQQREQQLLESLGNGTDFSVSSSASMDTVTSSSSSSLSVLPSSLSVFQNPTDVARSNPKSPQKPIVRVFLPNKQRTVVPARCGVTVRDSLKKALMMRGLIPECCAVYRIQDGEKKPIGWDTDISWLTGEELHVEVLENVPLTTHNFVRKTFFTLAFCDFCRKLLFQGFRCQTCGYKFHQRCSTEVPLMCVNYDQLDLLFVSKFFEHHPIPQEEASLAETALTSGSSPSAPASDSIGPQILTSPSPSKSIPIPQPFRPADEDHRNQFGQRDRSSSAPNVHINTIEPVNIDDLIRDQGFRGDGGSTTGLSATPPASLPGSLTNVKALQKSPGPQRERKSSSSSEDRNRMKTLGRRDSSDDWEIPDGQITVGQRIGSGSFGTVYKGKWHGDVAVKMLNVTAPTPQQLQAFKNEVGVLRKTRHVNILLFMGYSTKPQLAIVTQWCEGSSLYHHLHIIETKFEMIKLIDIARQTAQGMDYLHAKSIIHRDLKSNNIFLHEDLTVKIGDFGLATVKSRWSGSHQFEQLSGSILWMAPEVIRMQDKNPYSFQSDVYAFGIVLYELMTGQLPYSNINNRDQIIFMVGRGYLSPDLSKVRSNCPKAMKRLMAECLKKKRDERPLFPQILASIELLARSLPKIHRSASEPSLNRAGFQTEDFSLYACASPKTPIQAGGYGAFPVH
Procedure: as §3

[8] = target: EGFR (Homo sapiens, UniProt P00533); experiment: Kinase-Glo Plus RTK selectivity assay, EGFR; format: biochemical; settings: 10 μM ATP
Procedure: as §3

[9] = target: c-Kit (Homo sapiens, UniProt P10721); experiment: Kinase-Glo Plus RTK selectivity assay, c-Kit; format: biochemical; settings: 10 μM ATP
Procedure: as §3

[10] = tested on: EA.hy926; experiment: Human endothelial cell (EA.hy926) viability assay, CCK-8; format: cell-based; settings: CCK-8, 24 h treatment, read-out: Inhibition of human endothelial cell viability, EA.hy926 IC50
Procedure: In order to determine the anti-angiogenic effect of these multi-target inhibitors, we evaluated their effect on HECs (EA.hy926) viability using cell counting kit-8 (CCK-8) method.
The viability of HECs (EA.hy926) was assessed using the cell counting kit-8 (CCK-8, Sigma, USA) assay according to the manufacturer's instruction. […] After incubation at 37°C for 48 h, the cells were treated with tested compounds at various concentrations for 24 h. Subsequently, premixed CCK-8 and medium (10 μL) were added into the 96-well plates to monitor cell viability and were incubated at 37°C for 2 h. The number of viable cells was assessed by measurement of absorbance at 450 nm by a microplate reader. The viability rate was calculated as experimental OD value/control OD value.

[11] = target: T1, VEGFR-2; experiment: VEGFR-2/cell membrane chromatography (CMC) affinity evaluation; format: binding; settings: flow rate 0.6 mL/min, 37°C, 5 mM PBS pH 7.4, 270 nm
Procedure: In previous studies, artificial cultures highly expressing VEGFR-2 on HEK293 cell lines were constructed. […] Chromatographic conditions: 10 mm×2.0 mm; flow rate0.6 mL/min; column temperature 37°C; mobile phase 5 mM PBS, pH 7.4; detection wavelength 270 nm.
The VEGFR-2 cell membrane stationary phase was prepared as previous reported. Aqueous ammonium acetate buffer solution (pH 7.4, 5 mM) was pumped at a flow rate of 0.2 mL/min as the mobile phase after VEGFR-2/CMC column was loaded onto the chromatography system at the temperature of 37°C. […] The mobile phase was 5.0 mM phosphate burred saline with a 0.6 mL/min flow rate at a column temperature of 37°C. The detected wavelength was 270 nm. The test compound was injected into the VEGFR-2/CMC column and their retention characteristics were identified to evaluate their affinity with VEGFR-2.

T1 sequence (P35968 20-1356): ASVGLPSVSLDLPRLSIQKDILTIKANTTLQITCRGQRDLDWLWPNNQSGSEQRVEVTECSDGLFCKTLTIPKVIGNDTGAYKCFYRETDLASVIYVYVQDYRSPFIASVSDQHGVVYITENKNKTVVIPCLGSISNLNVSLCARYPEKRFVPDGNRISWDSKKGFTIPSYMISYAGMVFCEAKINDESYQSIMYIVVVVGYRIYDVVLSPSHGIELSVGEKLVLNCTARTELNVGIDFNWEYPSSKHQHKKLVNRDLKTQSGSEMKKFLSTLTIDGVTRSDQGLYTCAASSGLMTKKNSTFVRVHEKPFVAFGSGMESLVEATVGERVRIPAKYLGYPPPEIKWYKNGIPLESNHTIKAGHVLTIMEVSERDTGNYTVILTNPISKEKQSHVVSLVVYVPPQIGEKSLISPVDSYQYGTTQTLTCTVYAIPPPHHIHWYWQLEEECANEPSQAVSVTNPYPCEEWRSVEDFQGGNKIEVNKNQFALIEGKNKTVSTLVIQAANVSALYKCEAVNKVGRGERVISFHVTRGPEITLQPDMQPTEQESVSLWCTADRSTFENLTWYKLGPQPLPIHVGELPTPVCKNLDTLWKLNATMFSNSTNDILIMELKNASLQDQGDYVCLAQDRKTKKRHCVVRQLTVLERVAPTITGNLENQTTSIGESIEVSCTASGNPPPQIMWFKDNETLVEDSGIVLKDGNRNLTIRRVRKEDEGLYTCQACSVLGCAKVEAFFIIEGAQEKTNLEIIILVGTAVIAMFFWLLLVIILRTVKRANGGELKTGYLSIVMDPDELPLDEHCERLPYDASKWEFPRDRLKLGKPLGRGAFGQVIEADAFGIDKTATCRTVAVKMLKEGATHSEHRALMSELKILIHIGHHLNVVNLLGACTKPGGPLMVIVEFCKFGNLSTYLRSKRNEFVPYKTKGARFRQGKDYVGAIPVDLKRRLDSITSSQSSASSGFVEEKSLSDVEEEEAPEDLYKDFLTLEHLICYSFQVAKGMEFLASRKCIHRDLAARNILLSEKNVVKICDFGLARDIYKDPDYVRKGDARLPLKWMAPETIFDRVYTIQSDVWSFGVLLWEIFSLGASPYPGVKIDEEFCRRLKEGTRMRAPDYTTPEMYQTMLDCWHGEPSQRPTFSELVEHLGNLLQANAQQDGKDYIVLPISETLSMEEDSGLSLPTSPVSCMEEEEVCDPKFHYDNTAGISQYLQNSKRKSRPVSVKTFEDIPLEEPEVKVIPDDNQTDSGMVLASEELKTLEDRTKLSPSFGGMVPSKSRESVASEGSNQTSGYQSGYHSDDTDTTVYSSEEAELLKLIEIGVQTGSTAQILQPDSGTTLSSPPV

| IC50 [1] [µM] | IC50 [2] [µM] | IC50 [3] [µM] | IC50 [4] [µM] | IC50 [5] [µM] | IC50 [6] [µM] | IC50 [7] [µM] | IC50 [8] [µM] | IC50 [9] [µM] | melting point [°C] | Retention time on VEGFR-2/cell membrane stationary phase column [11] [min] | Compound | IC50 [10] [µM] | IC50 ([10]; Homo sapiens, EA.hy 926, 24 h) [µM] |
| --- | --- | --- | --- | --- | --- | --- | --- | --- | --- | --- | --- | --- | --- |
| 0.00191 | 0.00491 | 0.0139 | 0.0683 | 0.166 | 0.0834 | 0.136 | 0.113 | > 0.5 | > 300 |  | O=C(Nc1ccc(-c2ccc3c(=O)[nH]cnc3c2)cc1)Nc1ccccc1F [QDAU4, 1-(2-fluorophenyl)-3-(4-(4-oxo-3,4-dihydroquinazolin-7-yl)phenyl)urea] | 8.64 | < 10 |
|  |  |  |  |  |  |  |  |  |  | 4.5 | COc1cc2c(Nc3ccc(Br)cc3F)ncnc2cc1OCC1CCN(C)CC1 [vandetanib, reference compound] |  |  |
